Data on eight compounds can be found in BindingDB's records for doi:10.1021/acsmedchemlett.8b00333 (University of Calabria, 2019).

The nature of this experiment: Inverse agonist activity at GPR55 in human MDA-MB-231 cells assessed as reduction in cell viability incubated for 24 hrs by MTT assay. In general terms: Tetrazolium assays rely on reduction of a dye to a coloured formazan, in cell work by metabolically active cells.
The EC50 is the concentration giving half of the maximal effect. Take `O=C1C(Cl)=C(N2CCCC2)C(=O)c2c(O)ccc(O)c21`: the EC50 is greater than 10 µM.
Consider `CCN(CC)C1=C(Cl)C(=O)c2c(O)ccc(O)c2C1=O`, for which the EC50 is greater than 20 µM.
With `O=C1C(Cl)=C(N2CCOCC2)C(=O)c2c(O)ccc(O)c21`, the EC50 worked out at 2.7 µM.
As for `CCCCN(CCCC)C1=C(Cl)C(=O)c2c(O)ccc(O)c2C1=O`, the figure is greater than 20 µM.
As to `O=C1C(Cl)=C(N2CCCCC2)C(=O)c2c(O)ccc(O)c21`, the EC50 was determined as 1.6 µM.
On to `COc1ccc(OC)c2c1C(=O)C(Cl)=C(N1CCOCC1)C2=O`, for which the EC50 is greater than 10 µM.
As for `COc1ccc(OC)c2c1C(=O)C(Cl)=C(N1CCCCC1)C2=O`, the figure is greater than 10 µM; as for `COc1ccc(OC)c2c1C(=O)C(Cl)=C(Cl)C2=O` [2,3-Dichloro-5,8-dimethoxy-[1,4]naphthoquinone], greater than 20 µM.
